The values below come from ChEMBL document CHEMBL4433214, “Investigation around the Oxadiazole Core in the Discovery of a New Chemotype of Potent and Selective FXR Antagonists” (ACS Med Chem Lett, 2019).

The source made the active and inactive calls. The calls are words filed in the database; no cut-off is given here.

The nature of data set [1]: Intrinsic clearance in rat liver microsomes at 1 uM incubated for 2 hrs by LC-MS/MS analysis. The conditions noted are these: read-out: CLH. On the technique in general: Liver microsomes are a subcellular fraction often used to study metabolism.
In data set [2] the target is T1, Bile acid receptor (Homo sapiens) (UniProt Q96RI1).
T1 sequence (whole entry): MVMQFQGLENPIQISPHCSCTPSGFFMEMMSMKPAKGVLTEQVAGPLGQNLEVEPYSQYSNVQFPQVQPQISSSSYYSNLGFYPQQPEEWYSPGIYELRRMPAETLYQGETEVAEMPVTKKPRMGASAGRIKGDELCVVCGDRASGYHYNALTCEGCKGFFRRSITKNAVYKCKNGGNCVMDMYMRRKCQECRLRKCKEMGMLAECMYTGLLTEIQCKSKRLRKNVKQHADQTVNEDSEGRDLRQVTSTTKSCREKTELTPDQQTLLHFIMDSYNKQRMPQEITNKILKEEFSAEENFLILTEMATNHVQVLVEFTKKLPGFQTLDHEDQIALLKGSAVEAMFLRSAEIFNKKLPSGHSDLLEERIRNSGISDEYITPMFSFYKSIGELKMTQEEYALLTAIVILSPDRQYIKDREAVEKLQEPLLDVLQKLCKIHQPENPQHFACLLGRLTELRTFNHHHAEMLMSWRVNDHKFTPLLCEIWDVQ
The data set can be described thus: Antagonist activity at human FXR in HepG2 cells assessed as reversal of CDCA-induced increase in PEPCK mRNA expression level at 0.1 to 1 uM dosed after 24 hrs starvation followed by CDCA addition and measured after 18 hrs by RT-PCR analysis.

Data set [3] deals with T2, Nuclear receptor subfamily 1 group I member 2 (Homo sapiens, UniProt O75469).
T2 sequence (O75469 whole entry): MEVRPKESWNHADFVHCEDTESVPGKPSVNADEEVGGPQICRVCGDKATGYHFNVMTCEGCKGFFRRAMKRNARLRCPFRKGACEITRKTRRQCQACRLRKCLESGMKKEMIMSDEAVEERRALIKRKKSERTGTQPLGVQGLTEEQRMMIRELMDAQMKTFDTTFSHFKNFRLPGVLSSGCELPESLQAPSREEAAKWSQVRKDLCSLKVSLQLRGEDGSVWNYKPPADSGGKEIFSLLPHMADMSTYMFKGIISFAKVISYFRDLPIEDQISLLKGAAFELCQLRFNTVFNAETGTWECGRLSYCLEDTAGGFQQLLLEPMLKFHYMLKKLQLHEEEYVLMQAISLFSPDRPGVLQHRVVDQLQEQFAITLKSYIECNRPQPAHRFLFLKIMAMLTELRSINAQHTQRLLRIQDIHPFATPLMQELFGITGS
The data set can be described thus: Antagonist activity at human PXR transfected in HepG2 at 5 uM in presence of PXR agonist rifaximin by luciferase reporter assay. Conditions: hepg2, 5 µM. The format is cell-based. Background: A reporter such as luciferase makes a cellular process visible.

Data set [4] deals with T1, Bile acid receptor (Homo sapiens). The data set can be described thus: Transactivation of human FXR transfected in HepG2 cells at 10 uM by luciferase reporter assay. In kind it is cell-based.
Data set [5] addresses T3, Peroxisome proliferator-activated receptor gamma (Homo sapiens) (UniProt P37231).
T3 sequence (whole entry): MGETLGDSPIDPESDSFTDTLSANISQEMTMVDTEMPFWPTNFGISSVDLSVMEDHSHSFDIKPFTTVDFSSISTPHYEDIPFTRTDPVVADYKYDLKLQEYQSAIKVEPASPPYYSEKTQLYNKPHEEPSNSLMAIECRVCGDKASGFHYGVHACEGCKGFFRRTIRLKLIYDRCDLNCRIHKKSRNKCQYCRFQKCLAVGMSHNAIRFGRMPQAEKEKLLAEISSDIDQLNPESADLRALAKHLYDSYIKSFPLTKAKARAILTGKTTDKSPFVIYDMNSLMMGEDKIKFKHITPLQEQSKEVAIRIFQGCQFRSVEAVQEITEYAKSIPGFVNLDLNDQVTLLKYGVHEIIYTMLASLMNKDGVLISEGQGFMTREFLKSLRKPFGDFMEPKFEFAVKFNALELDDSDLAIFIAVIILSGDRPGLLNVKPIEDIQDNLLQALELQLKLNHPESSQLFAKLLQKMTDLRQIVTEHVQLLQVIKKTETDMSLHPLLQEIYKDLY
The data set can be described thus: Antagonist activity at human PPARgamma transfected in HepG2 at 5 uM in presence of PPARgamma agonist rosiglitazone by luciferase reporter assay. The format is cell-based.

Data set [6] concerns the target T1, Bile acid receptor (Homo sapiens). The data set can be described thus: Antagonist activity at human FXR in HepG2 cells assessed as reversal of CDCA-induced increase in […] mRNA expression level at 0.1 to 1 uM dosed after 24 hrs starvation followed by CDCA addition and measured after 18 hrs by RT-PCR analysis.
For data set [7] the target is unchanged. The data set can be described thus: Antagonist activity at human FXR in HepG2 cells assessed as reversal of CDCA-induced increase in OSTalpha mRNA expression level at 0.1 to 1 uM dosed after 24 hrs starvation followed by CDCA addition and measured after 18 hrs by RT-PCR analysis.
Data set [8] deals with T3, Peroxisome proliferator-activated receptor gamma (Homo sapiens). The data set can be described thus: Agonist activity at human PPARgamma transfected in HepG2 at 10 uM by luciferase reporter assay. The format is cell-based.

With `c1ccc2cc(-c3noc(C4CCNCC4)n3)ccc2c1`, in data set [1], the microsomal CLint at 1 µM is 20.7 µL/min/mg. Further, the outcome in data set [2], in data set [6] and in data set [7] was Active. In data set [3], the Activity result is reported as “Not Active”. The result in data set [4], in data set [5] and in data set [8] was inactive.
